Results published in PMC12397098, “3-Monothiopomalidomide, a new immunomodulatory imide drug (IMiD), blunts inflammation and mitigates ischemic stroke in the rat” (GeroScience, 2025).
Like-named read-outs stand apart in the source and are kept apart here.

Legend:
[1] = Ex vivo plasma stability, human; type: in vitro ADME; conditions: 100 μg/ml, 37 °C, 180 min
Method: Ex vivo evaluations of drug plasma and liver microsomal time-dependent breakdown are routinely undertaken to initially characterize the metabolic stability of new pharmacological compounds and were performed by WuXi AppTec (Shanghai, China; Study No. 424847–20,211,214-MMS). Rat and human plasma and liver microsomes were purchased from Xenotech (Sprague Dawley rat, Catalog no. R1000; BioIVT, Westbury, NY) or Corning (mixed human, Catalog no. 452117; Sigma). Rat and human plasma was incubated at 37 °C on a shaker and spiked with 3-MP (100 μg/ml, n = 3). Thereafter, samples were time-dependently (0 to 180 min) removed, immediately frozen (− 80 °C), and subjected to LC–MS/MS analysis at a later time.

[2] = Brain entry in rats (brain and plasma at 5 h); type: in vivo; conditions: male, Fischer 344, rat, brain
Method: The animals were euthanized at 5 h post-dosing, and plasma and a brain sample were taken, frozen to − 80 °C, and later assayed for 3-MP by LC–MS/MS.
LC–MS/MS analysis was performed with a Vanquish Flex UHPLC (Thermo Scientific, Waltham MA, USA) and an Orbitrap Exploris 240 mass spectrometer (Thermo Scientific). Samples were separated on a C18 UHPLC column (100 mm × 2.1 mm, 3 μm; Thermo Scientific). The mobile phase A for LC separation was 0.1% formic acid and the mobile phase B was 0.1% formic acid in methanol. The chromatography gradient was initiated at 95% A and 5% B at zero time. This was continued for 1 min and, thereafter, linearly changed to 5% A and 95% B by 9 min. This was then maintained for a further 3 min. The flow rate was 0.3 mL/min, and the injection volume was 2 μl. Mass spectra were acquired using the data-dependent Top 4 MS2 (ddMS2) method with a mass scan (100–1000 m/z) and 120,000 MS resolution.

[3] = system: plasma TNF-α, IL-1β, IL-6, IL-10 in MCAo-challenged rats; experiment: MCAo ischemic stroke: plasma cytokines at 48 h; type: in vivo; conditions: rat MCAo, 3-MP I.P., plasma at 48 h
[4] = human, 1 μM
in vitro = conditions: human, microsomes
[5] = system: LPS-induced cytokines (TNF-α, IL-6, IL-10, IL-13) in plasma and cerebral cortex; experiment: Systemic and brain LPS anti-inflammatory study in rats; type: in vivo; conditions: rat, 1 h pre-treatment, 3-MP 13.23 and 26.47 mg/kg I.P., pomalidomide 25 mg/kg I.P., LPS 1 mg/kg I.P., 4 h

SMILES: Nc1cccc2c1C(=S)N(C1CCC(=O)NC1=O)C2=O (centres unmarked) [3-MP, 3-Monothiopomalidomide]
- stability in human plasma [1]: relatively stable
- Kp at 5 h ([2]; ip, 13.25 mg/kg, 13.25 mg/kg I.P., read-out: Brain/plasma ratio): 0.52
- Kp at 5 h ([2]; ip, 26.5 mg/kg, 26.5 mg/kg I.P., read-out: Brain/plasma ratio): 0.61
- Kp at 5 h ([2]; other: I.P. or P.O., 13.25 or 26.50 mg/kg I.P. or P.O., read-out: brain concentrations as % of concomitant plasma levels): 0.51 to 0.61
- Kp at 5 h ([2]; other: I.P. or oral (P.O.), across I.P. and P.O. doses, read-out: brain/plasma concentration ratio): 0.5 to 0.6
- Kp at 5 h ([2]; po, 26.5 mg/kg, 26.5 mg/kg P.O., read-out: Brain/plasma ratio): 0.51
- MCAo-induced elevation in plasma IL-1β [3]: significantly mitigated
- MCAo-induced elevation in plasma IL-6 [3]: significantly mitigated
- MCAo-induced elevation in plasma TNF-α [3]: significantly mitigated
- plasma anti-inflammatory IL-10 levels [3]: rise
- reduction of 3-MP levels following 60-min incubation ([4]; 60 min): 8.2%
- Remaining (NCF = 60 min) ([4]; microsomes, 1 h): 115.3%
- Remaining (T = 60 min) ([4]; microsomes, 1 h): 91.8%
- CLint scaled at 1 μM (in vitro): < 8.6 mL/min/kg
- half-life at 1 μM (in vitro): > 2.42 h
- microsomal CLint at 1 μM (in vitro): < 9.6 µL/min/mg
- LPS-induced cytokine changes in plasma and cerebral cortex [5]: significantly mitigated
